Experimental data taken from patent US20060123492A1, “Methods of identifying modulators of NMUR2-mediated activity” (priority 2003, published 2006).

What was measured:
[1] = test system: wild type mice; test: Tail flick test, effect of morphine in wild type mice; format: in vivo; conditions: adult male wild type mice, 30 minutes after injection
From the text: (§1) Mice were gently held on a platform of an automated apparatus wrapped in a soft cloth. Their tails were exposed and extended in a straight line along a narrow groove. Once the tail was laying flat in the groove, the experimenter activated a high-intensity and heat producing narrow beam of light that was directed at a small spot in the tail. When the animal reached its pain threshold, a spinal reflex caused the tail to “flick” out of the light beam, automatically stopping a timer that started when the beam was activated. Each animal was tested 3 times, on different regions of the tail, and the median latency to “flick” was recorded as the nociceptive threshold. Experiments were performed blind with respect to the animals' genotype. The results are shown in FIGS. 1 and 2 in wild-type, heterozygous, and NMUR2 knock-out mice (FIG. 1) and for male and female mice (FIG. 2).
(§2) Adult male mice were treated with the mu opiate receptor agonist morphine at either 0, 2.5, 5, or 10 mg/kg sub-cutaneously. At each dose, 4 wild type mice and 4 knock-outs were treated. Tail flick latencies were determined 30 minutes after injection of morphine or vehicle, with a maximum flick latency of 15 seconds allowed to prevent tissue damage. […] The difference between the tail flick latencies of the two genotypes at 2.5 mg/kg morphine could not be accounted for by the baseline difference in tail flick latencies normally observed between the wild types and the knock-outs, both because the difference in latency was larger, and because the enhancement of morphine analgesia is significant while the mild baseline analgesia observed in the NmUR2 knock-outs was not.

[2] = test system: NMUR2 knock-out mice; test: Tail flick test, effect of morphine in NMUR2 knock-out mice; format: in vivo; conditions: adult male NMUR2 knock-out mice, 30 minutes after injection
From the text: as §1, §2

## CN1CC[C@]23c4c5ccc(O)c4O[C@H]2[C@@H](O)C=C[C@H]3[C@H]1C5 [morphine]
[1]; 2.5 mg/kg sub-cutaneously
  analgesia (tail flick latency): mild analgesia
[1]; 5 mg/kg sub-cutaneously
  analgesia (tail flick latency): maximal analgesia
[1]; 10 mg/kg sub-cutaneously
  analgesia (tail flick latency): maximal analgesia
[2]; 2.5 mg/kg sub-cutaneously
  analgesia (tail flick latency): augmented analgesia
[2]; 2.5 mg/kg sub-cutaneously, maximum flick latency of 15 seconds allowed
  tail flick latency: 15 s
[2]; 5 mg/kg sub-cutaneously
  analgesia (tail flick latency): maximal analgesia
[2]; 10 mg/kg sub-cutaneously
  analgesia (tail flick latency): maximal analgesia
